Reference: ChEMBL document CHEMBL1201862, “PubChem BioAssay data set” (2004)
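Test compounds were applied to cells in 96-well plates for 48 hours at 5 doses. GI50 is the concentration that inhibits growth by half.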 Activity calls are given as the source filed them. No stated cut-off is given here; in the data, active = GI50 up to about 1.1 µM and inactive = higher.

Key:
Assay in all cases: NCI tumour cell line growth inhibition, 48 h
A549 = system: A549
ACHN = system: ACHN
COLO 205 = system: COLO 205
DU-145 = system: DU-145
HOP-92 = system: HOP-92
IGROV-1 = system: IGROV-1
LOX IMVI = system: LOX IMVI
MOLT-4 = system: MOLT-4
Malme-3M = system: Malme-3M
NCI-H23 = system: NCI-H23
NCI-H460 = system: NCI-H460
OVCAR-8 = system: OVCAR-8
SF-295 = system: SF-295
SF-539 = system: SF-539
SK-MEL-28 = system: SK-MEL-28
SW-620 = system: SW-620
TK-10 = system: TK-10
UACC-257 = system: UACC-257
UACC-62 = system: UACC-62
NCI/ADR-RES = system: NCI/ADR-RES

| Structure (SMILES) | GI50 (A549) | GI50 (ACHN) | GI50 (COLO 205) | GI50 (DU-145) | GI50 (HOP-92) | GI50 (IGROV-1) | GI50 (LOX IMVI) | GI50 (MOLT-4) | GI50 (Malme-3M) | GI50 (NCI-H23) | GI50 (NCI-H460) | GI50 (OVCAR-8) | GI50 (SF-295) | GI50 (SF-539) | GI50 (SK-MEL-28) | GI50 (SW-620) | GI50 (TK-10) | GI50 (UACC-257) | GI50 (UACC-62) | GI50 (NCI/ADR-RES) |
| --- | --- | --- | --- | --- | --- | --- | --- | --- | --- | --- | --- | --- | --- | --- | --- | --- | --- | --- | --- | --- |
| Cc1ccc2nc3ccccc3c(C3C4C(=O)N(c5ccc(Br)cc5Cl)C(=O)C4ON3C(C(N)=O)c3ccccc3)c2c1 (centres undefined) | > 25 µM (inactive) | 6.73 µM (inactive) | > 25 µM (inactive) | > 25 µM (inactive) | > 25 µM (inactive) | 16.7 µM (inactive) | 22.8 µM (inactive) | 8.73 µM (inactive) | > 25 µM (inactive) | 0.321 µM (active) | > 25 µM (inactive) | > 25 µM (inactive) | > 25 µM (inactive) | 11.8 µM (inactive) | > 25 µM (inactive) | > 25 µM (inactive) | > 25 µM (inactive) | 15.6 µM (inactive) | 7.93 µM (inactive) | – |
| Cc1c(CCCl)c(Cl)n2c(nc3ccccc32)c1C#N | 1.4 µM (inactive) | 0.836 µM (active) | 0.991 µM (active) | 1.69 µM (inactive) | 1.15 µM (inactive) | 1.62 µM (inactive) | 0.281 µM (active) | 0.172 µM (active) | 1.26 µM (inactive) | 0.904 µM (active) | 0.456 µM (active) | 1.25 µM (inactive) | 1.31 µM (inactive) | 0.681 µM (active) | 1.94 µM (inactive) | 0.161 µM (active) | 1.61 µM (inactive) | 1.44 µM (inactive) | 1.02 µM (active) | – |
| C[C@@H]1CCC2[C@@H](C)[C@@H](O[C@H]3O[C@@H]4O[C@@]5(C)CCC6[C@H](C)CCC([C@H]3C)[C@]64OO5)O[C@@H]3O[C@@]4(C)CCC1[C@@]23OO4 (some centres undefined) | 18.6 µM (inactive) | 3.27 µM (inactive) | 1.17 µM (inactive) | > 25 µM (inactive) | 3.63 µM (inactive) | > 25 µM (inactive) | 0.973 µM (active) | 2.17 µM (inactive) | – | 1.1 µM (active) | > 25 µM (inactive) | 1.19 µM (inactive) | > 16.7 µM (inactive) | > 5.51 µM (inactive) | > 25 µM (inactive) | 1.16 µM (inactive) | > 20 µM (inactive) | > 25 µM (inactive) | 1.99 µM (inactive) | 1.45 µM (inactive) |
| COCc1cc2c(cc1/C=C/[N+](=O)[O-])OCO2 | 17.1 µM (inactive) | 17.1 µM (inactive) | 18.2 µM (inactive) | 19.4 µM (inactive) | 18.8 µM (inactive) | 22.8 µM (inactive) | 27.5 µM (inactive) | > 100 µM (inactive) | – | 27.4 µM (inactive) | 17.7 µM (inactive) | 23 µM (inactive) | 21.6 µM (inactive) | 20.7 µM (inactive) | 11 µM (inactive) | 17.7 µM (inactive) | 16.9 µM (inactive) | 16.8 µM (inactive) | 17.9 µM (inactive) | 25.2 µM (inactive) |
| CC(=O)O[C@H]1C(=O)[C@@]2(C)C([C@H](OC(=O)c3ccccc3)[C@]3(O)C[C@H](OC(=O)[C@H](O)[C@@H](NC(=O)c4ccc(Cl)cc4)c4ccccc4)C(C)=C1C3(C)C)C1(OC(C)=O)CO[C@@H]1C[C@@H]2O (some centres undefined) | 0.168 µM (active) | 6.47 µM (inactive) | 0.0607 µM (active) | 0.0865 µM (active) | – | 0.0946 µM (active) | < 0.01 µM (active) | 21.3 µM (inactive) | 0.094 µM (active) | 0.0738 µM (active) | 0.0668 µM (active) | 0.0778 µM (active) | 0.6 µM (active) | 0.0689 µM (active) | 0.114 µM (active) | 0.0569 µM (active) | 0.661 µM (active) | 0.109 µM (active) | 0.0435 µM (active) | 14.9 µM (inactive) |
| Oc1ccc2cc(Br)ccc2c1-c1c(O)ccc2ccc(Br)cc12 | 15.2 µM (inactive) | 14.8 µM (inactive) | 13.6 µM (inactive) | 15.8 µM (inactive) | – | 8.3 µM (inactive) | – | 4.85 µM (inactive) | 13.4 µM (inactive) | 14.4 µM (inactive) | 4.12 µM (inactive) | 14.4 µM (inactive) | 15.4 µM (inactive) | 18.5 µM (inactive) | 18.7 µM (inactive) | 11.7 µM (inactive) | 16.7 µM (inactive) | 18.5 µM (inactive) | 17.3 µM (inactive) | 13.6 µM (inactive) |
| CC(c1ccccc1)n1cncc1C(=O)NN1CCN(C)CC1 (centres undefined) | > 10 µM (inactive) | > 10 µM (inactive) | > 10 µM (inactive) | > 10 µM (inactive) | – | > 10 µM (inactive) | > 10 µM (inactive) | > 10 µM (inactive) | > 10 µM (inactive) | > 10 µM (inactive) | > 10 µM (inactive) | > 10 µM (inactive) | > 10 µM (inactive) | > 10 µM (inactive) | > 10 µM (inactive) | > 10 µM (inactive) | > 10 µM (inactive) | > 10 µM (inactive) | > 10 µM (inactive) | > 10 µM (inactive) |
| C=C1C(O)C23CCC4C(C(=O)O)(C(=O)O)CC(OC5OC(CO)C(O)C(OC(=O)CCc6ccccc6)C5NC(=O)CC(C)C)CC4(C)C2CCC1(O)C3 (centres undefined) | > 100 µM (inactive) | > 100 µM (inactive) | > 100 µM (inactive) | > 100 µM (inactive) | > 100 µM (inactive) | > 100 µM (inactive) | > 100 µM (inactive) | > 100 µM (inactive) | > 100 µM (inactive) | > 100 µM (inactive) | > 100 µM (inactive) | > 100 µM (inactive) | > 100 µM (inactive) | > 100 µM (inactive) | > 100 µM (inactive) | > 100 µM (inactive) | > 100 µM (inactive) | > 100 µM (inactive) | > 100 µM (inactive) | – |
| COc1cccc(Nc2nc(-c3cccs3)nc3cc(OC)c(OC)cc23)c1 | 29 µM (inactive) | 21.6 µM (inactive) | 23.2 µM (inactive) | 55.6 µM (inactive) | 25 µM (inactive) | 21.6 µM (inactive) | – | 53.6 µM (inactive) | 68.9 µM (inactive) | 32.4 µM (inactive) | 28.8 µM (inactive) | 23.9 µM (inactive) | 23.4 µM (inactive) | 20.9 µM (inactive) | 31.5 µM (inactive) | 29 µM (inactive) | 33.4 µM (inactive) | 36.8 µM (inactive) | 19.1 µM (inactive) | 24.3 µM (inactive) |
| CC(=O)CCC(=O)CC(O)(C(F)(F)F)C(F)(F)F | 20.6 µM (inactive) | 24.8 µM (inactive) | 17.9 µM (inactive) | 20.5 µM (inactive) | 13.6 µM (inactive) | 15.4 µM (inactive) | – | 17.9 µM (inactive) | 16.7 µM (inactive) | 21.2 µM (inactive) | 20.7 µM (inactive) | 19.6 µM (inactive) | 12.4 µM (inactive) | 16.6 µM (inactive) | 22.7 µM (inactive) | 21.6 µM (inactive) | 22.6 µM (inactive) | 17.8 µM (inactive) | 16.8 µM (inactive) | 25.3 µM (inactive) |
| OC(Cc1cccc2ccccc12)CN1CCC(c2ccccc2)CC1 (centres undefined) | 15.9 µM (inactive) | 17.1 µM (inactive) | 13 µM (inactive) | 14.9 µM (inactive) | 12.4 µM (inactive) | – | 15.5 µM (inactive) | – | – | 15.3 µM (inactive) | 13.9 µM (inactive) | 16.8 µM (inactive) | 13.2 µM (inactive) | 17.3 µM (inactive) | 13.4 µM (inactive) | 15 µM (inactive) | 12.8 µM (inactive) | 3.72 µM (inactive) | 15.3 µM (inactive) | 14.9 µM (inactive) |
| COc1cc(/C=C/C(=O)c2ccc(NS(=O)(=O)c3cc([N+](=O)[O-])ccc3C)cc2)cc(OC)c1OC | 3.81 µM (inactive) | 4.38 µM (inactive) | 4.26 µM (inactive) | 3.13 µM (inactive) | 2.98 µM (inactive) | 3.88 µM (inactive) | 3.29 µM (inactive) | 1.85 µM (inactive) | – | 3.05 µM (inactive) | – | 2.49 µM (inactive) | 4.61 µM (inactive) | 2.18 µM (inactive) | 8.43 µM (inactive) | 4.49 µM (inactive) | 3.96 µM (inactive) | 7.53 µM (inactive) | – | 8.41 µM (inactive) |
| Cc1cc2c(cc1Cl)SC(NNCCO)=NS2(=O)=O | – | > 100 µM (inactive) | > 100 µM (inactive) | > 100 µM (inactive) | > 100 µM (inactive) | > 100 µM (inactive) | > 100 µM (inactive) | > 100 µM (inactive) | – | > 100 µM (inactive) | > 100 µM (inactive) | > 100 µM (inactive) | > 100 µM (inactive) | > 100 µM (inactive) | > 100 µM (inactive) | > 100 µM (inactive) | > 100 µM (inactive) | > 100 µM (inactive) | 97.7 µM (inactive) | > 100 µM (inactive) |
| CN(C)CCNC(=O)c1cccc2c1Oc1c(cccc1[N+](=O)[O-])O2 | 0.458 µM (active) | 0.335 µM (active) | 1.87 µM (inactive) | 0.57 µM (active) | – | 1.56 µM (inactive) | 0.908 µM (active) | 0.298 µM (active) | 1.33 µM (inactive) | 1.44 µM (inactive) | 0.413 µM (active) | 1.71 µM (inactive) | 0.548 µM (active) | 1.39 µM (inactive) | 2.02 µM (inactive) | 1.06 µM (active) | 1.69 µM (inactive) | 2 µM (inactive) | 0.419 µM (active) | – |
